{"source": "paper PMC9898036", "about": "“VIP152 is a selective CDK9 inhibitor with pre-clinical in vitro and in vivo efficacy in chronic lymphocytic leukemia” (Leukemia, 2022)", "assay_type_in_all_cases": "binding", "key": {"CDK7": {"biological_target": "CDK7 (Homo sapiens, UniProt P50613)", "sequence (P50613 whole entry)": "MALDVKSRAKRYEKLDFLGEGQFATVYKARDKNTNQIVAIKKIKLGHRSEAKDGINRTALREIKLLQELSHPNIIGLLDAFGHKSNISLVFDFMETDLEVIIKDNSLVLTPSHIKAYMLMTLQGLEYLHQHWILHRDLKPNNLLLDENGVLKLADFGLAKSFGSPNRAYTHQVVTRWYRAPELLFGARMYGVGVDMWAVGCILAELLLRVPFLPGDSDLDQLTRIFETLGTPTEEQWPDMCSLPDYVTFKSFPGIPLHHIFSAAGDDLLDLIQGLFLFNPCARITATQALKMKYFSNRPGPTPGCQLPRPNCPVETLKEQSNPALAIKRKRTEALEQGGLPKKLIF", "experiment": "KINOMEscan: CDK7", "description": "(§1) The structure and synthesis of VIP152 were recently described by Lücking et al.. (Fig. 1A); however, the selectivity of the molecule in cellular systems has yet to be explored. […] We also performed this experiment at 1000 nM, where CDK9 was inhibited at 99%. […] We found a strong concordance between our data and those of Lücking when comparing the most inhibited kinases. Potential off-target effects of VIP152 were next tested in vitro at a concentration of 10 µM for off-target activity against a broad range of receptors, transporters, ion channels, and enzymes (n = 138) using the Eurofins Diversity Panel.\n(§2) Kinomescan Kinase Profiling Assay\n(§3) Kinomescan Assay was performed at DiscoverRX and described in Fabian, et al. 2005, Nat.\n(§4) Biotechnol. In brief, kinases were produced and subsequently tagged with DNA for qPCR detection.\n(§5) Streptavidin-coated magnetic beads were bound to biotinylated kinase ligands to serve as a solid support.\n(§6) VIP152 was dissolved in DMSO and tested across a 10 serial threefold dilution set and compared to a test compound and a DMSO control. Kinases which were inhibited by VIP152 would not be bound to the solid-support resulting in decreased substrate for the qPCR reaction. Kinome map was produced via TreeSpot Analysis from DiscoverRX. […]\n(§7) NanoBRETTM Target Engagement Assay Protocol […]\nThe cell and lipid:DNA […]\ncomplex was dispensed into a sterile tissue culture dish and incubated for 22-24 hours. Test compounds were then delivered from the compound source plate to the wells of a 384-well white NBS plate by Echo 550. Cells with NanoBRET Tracer Reagent were then prepared by first removing media from dish of transfected HEK293 cells via aspiration, trypsinization, and allowing cells to dissociate from the dish. Trypsin was neutralized using medium containing serum and centrifuged at 200g for 5 minutes to pellet the cells. Cell density was then adjusted to 2E05 cells/mL in Opti-MEM without phenol red. Complete 20X NanoBRET Tracer Reagent was prepared with Tracer Dilution Buffer and dispensed at a ratio of 1:20 Reagent to cells in the tube. The cell"}, "GSK3α": {"biological_target": "GSK3α (Homo sapiens, UniProt P49840)", "sequence (P49840 whole entry, the tested form may be a part)": "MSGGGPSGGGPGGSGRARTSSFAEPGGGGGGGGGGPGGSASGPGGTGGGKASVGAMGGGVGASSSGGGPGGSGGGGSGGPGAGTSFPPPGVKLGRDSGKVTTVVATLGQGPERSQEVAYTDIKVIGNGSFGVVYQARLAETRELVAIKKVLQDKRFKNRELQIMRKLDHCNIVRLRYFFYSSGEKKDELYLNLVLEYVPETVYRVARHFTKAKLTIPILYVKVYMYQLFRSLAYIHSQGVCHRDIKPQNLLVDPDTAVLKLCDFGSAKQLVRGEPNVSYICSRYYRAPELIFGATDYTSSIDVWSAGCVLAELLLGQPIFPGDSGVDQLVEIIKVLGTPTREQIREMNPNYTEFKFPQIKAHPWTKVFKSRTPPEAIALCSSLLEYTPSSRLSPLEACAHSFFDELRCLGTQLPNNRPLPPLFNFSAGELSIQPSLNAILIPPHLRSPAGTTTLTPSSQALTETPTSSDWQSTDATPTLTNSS", "experiment": "KINOMEscan: GSK3α", "description": "as §1, §2, §3, §4, §5, §6, §7\n(§8) HEK293 cells were grown to 70-80% confluence appropriately prior to assay and subsequently trypsinized. Lipid:DNA complexes were prepared as follows. A 10µg/mL solution of DNA in Opti-MEM without serum consisting of the following ratios of carrier DNA and DNA encoding NanoLuc fusion were prepared.\n(§9) 9.0µg/mL of Transfection Carrier DNA, 1.0µg/mL of NanoLuc fusion vector DNA, and 1mL of Opti-MEM without phenol red. The solution was mixed thoroughly. Next, 30µL of FuGENE HD Transfection Reagent was added into each mL of DNA mixture to form the lipid:DNA complex and mixed by inversion 10 times followed by a 20 minute incubation at room temperature. […]"}, "ERBB2": {"biological_target": "ERBB2 (Homo sapiens, UniProt P04626)", "sequence (P04626 23-1255)": "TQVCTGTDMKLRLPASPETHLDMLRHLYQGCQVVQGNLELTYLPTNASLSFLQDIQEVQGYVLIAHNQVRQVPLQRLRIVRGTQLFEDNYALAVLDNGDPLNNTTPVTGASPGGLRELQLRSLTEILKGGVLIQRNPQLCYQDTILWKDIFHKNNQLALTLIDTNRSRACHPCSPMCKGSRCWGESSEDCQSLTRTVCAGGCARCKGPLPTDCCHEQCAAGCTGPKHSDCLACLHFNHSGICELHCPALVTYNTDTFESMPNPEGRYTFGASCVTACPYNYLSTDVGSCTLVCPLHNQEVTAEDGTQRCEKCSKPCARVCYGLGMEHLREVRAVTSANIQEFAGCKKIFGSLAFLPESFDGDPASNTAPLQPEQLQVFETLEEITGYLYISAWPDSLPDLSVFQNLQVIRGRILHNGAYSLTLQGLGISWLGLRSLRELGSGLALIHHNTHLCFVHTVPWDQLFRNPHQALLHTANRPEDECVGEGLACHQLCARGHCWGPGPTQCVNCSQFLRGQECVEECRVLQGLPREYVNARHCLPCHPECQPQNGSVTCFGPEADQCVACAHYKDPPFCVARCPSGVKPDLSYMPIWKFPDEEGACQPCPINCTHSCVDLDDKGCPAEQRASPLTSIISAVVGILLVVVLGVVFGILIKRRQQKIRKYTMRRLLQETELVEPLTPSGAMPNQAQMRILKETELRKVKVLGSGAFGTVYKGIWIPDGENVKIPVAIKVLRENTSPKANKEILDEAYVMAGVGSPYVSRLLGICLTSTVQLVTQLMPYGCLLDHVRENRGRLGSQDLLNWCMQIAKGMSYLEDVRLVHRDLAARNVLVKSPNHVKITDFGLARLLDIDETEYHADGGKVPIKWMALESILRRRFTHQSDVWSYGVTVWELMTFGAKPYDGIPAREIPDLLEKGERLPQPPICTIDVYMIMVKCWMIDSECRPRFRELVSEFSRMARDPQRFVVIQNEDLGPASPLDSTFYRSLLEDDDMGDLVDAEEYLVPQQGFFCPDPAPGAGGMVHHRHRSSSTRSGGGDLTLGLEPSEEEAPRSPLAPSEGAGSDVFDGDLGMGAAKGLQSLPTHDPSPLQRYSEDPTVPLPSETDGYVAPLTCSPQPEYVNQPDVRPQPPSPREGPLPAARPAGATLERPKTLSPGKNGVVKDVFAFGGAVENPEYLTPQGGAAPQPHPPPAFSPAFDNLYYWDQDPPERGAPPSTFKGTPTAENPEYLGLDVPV", "experiment": "KINOMEscan: ERBB2", "description": "as §1, §2, §3, §4, §5, §6, §7, §8, §9"}, "Bradykinin B1": {"biological_target": "Bradykinin B1 (Homo sapiens, UniProt P46663)", "experiment": "Eurofins Diversity Panel", "details": "hum, Conc. 10 μM"}, "Transporter, GABA": {"biological_target": "Transporter, GABA (Rattus norvegicus, UniProt P23978)", "experiment": "Eurofins Diversity Panel", "details": "Conc. 10 μM"}, "RIOK3": {"biological_target": "RIOK3 (Homo sapiens, UniProt O14730)", "sequence (O14730 whole entry)": "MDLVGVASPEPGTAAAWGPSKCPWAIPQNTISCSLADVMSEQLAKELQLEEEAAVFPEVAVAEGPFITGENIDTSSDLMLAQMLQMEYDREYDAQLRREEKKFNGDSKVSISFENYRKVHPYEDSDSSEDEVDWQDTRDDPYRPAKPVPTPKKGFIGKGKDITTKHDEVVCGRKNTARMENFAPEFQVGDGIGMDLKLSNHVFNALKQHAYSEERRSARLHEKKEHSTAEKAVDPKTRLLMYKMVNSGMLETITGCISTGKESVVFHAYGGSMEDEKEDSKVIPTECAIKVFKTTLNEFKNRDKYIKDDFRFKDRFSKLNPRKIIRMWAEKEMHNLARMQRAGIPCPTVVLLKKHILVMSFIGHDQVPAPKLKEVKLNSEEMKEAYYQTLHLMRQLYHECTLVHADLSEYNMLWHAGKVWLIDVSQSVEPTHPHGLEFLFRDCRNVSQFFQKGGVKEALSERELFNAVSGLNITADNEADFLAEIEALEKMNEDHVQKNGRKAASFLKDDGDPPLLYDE", "experiment": "KINOMEscan: RIOK3", "details": "100 nM, read-out: Percent Control"}, "TRKB": {"biological_target": "TRKB (Homo sapiens, UniProt Q16620)", "sequence (Q16620 32-822)": "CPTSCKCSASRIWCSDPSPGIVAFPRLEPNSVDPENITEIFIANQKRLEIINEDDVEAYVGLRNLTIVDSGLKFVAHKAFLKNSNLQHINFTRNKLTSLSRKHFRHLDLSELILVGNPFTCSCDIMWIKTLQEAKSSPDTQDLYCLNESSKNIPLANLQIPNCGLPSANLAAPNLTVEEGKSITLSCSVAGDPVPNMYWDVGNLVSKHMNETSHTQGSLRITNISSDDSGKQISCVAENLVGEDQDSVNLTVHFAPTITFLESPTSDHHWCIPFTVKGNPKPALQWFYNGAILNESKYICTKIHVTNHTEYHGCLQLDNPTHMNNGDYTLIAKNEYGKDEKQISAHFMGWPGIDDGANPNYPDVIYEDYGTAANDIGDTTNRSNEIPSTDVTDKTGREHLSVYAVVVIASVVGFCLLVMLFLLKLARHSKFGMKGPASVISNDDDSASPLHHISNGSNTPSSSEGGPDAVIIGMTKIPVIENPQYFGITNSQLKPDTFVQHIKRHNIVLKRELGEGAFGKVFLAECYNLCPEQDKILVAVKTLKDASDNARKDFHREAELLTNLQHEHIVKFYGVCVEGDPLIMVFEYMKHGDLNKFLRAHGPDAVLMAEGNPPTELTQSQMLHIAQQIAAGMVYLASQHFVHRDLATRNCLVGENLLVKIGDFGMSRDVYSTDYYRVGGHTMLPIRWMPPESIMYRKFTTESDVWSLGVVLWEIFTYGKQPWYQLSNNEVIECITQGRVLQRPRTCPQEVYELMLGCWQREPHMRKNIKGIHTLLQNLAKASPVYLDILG", "experiment": "KINOMEscan: TRKB", "details": "100 nM, read-out: Percent Control"}, "TRKC": {"biological_target": "TRKC (Homo sapiens, UniProt Q16288)", "experiment": "KINOMEscan: TRKC", "details": "100 nM, read-out: Percent Control"}, "ANKK1": {"biological_target": "ANKK1 (Homo sapiens, UniProt Q8NFD2)", "experiment": "KINOMEscan: ANKK1", "details": "1000 nM, read-out: Percent Control"}, "CAMK1G": {"biological_target": "CAMK1G (Homo sapiens, UniProt Q96NX5)", "sequence (Q96NX5 whole entry)": "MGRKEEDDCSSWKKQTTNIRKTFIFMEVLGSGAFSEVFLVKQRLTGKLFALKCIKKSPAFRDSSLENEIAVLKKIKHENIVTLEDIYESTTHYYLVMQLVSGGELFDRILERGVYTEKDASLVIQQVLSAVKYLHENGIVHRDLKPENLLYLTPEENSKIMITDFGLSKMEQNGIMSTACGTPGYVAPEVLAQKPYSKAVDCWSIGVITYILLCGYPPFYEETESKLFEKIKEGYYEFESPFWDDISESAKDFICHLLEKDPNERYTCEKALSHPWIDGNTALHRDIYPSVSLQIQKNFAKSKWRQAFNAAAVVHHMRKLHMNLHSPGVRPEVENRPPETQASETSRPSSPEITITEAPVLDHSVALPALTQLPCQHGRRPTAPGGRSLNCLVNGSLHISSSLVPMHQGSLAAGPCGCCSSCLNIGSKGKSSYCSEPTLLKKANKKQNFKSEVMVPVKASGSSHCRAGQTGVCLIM", "experiment": "KINOMEscan: CAMK1G", "details": "1000 nM, read-out: Percent Control"}, "CHEK1": {"biological_target": "CHEK1 (Homo sapiens, UniProt O14757)", "experiment": "KINOMEscan: CHEK1", "details": "1000 nM, read-out: Percent Control"}, "EPHA4": {"biological_target": "EPHA4 (Homo sapiens, UniProt P54764)", "experiment": "KINOMEscan: EPHA4", "details": "1000 nM, read-out: Percent Control"}, "EPHB6": {"biological_target": "EPHB6 (Homo sapiens, UniProt O15197)", "experiment": "KINOMEscan: EPHB6", "details": "1000 nM, read-out: Percent Control"}, "ERBB4": {"biological_target": "ERBB4 (Homo sapiens, UniProt Q15303)", "experiment": "KINOMEscan: ERBB4", "details": "1000 nM, read-out: Percent Control"}, "GRK4": {"biological_target": "GRK4 (Homo sapiens, UniProt P32298)", "sequence (P32298 whole entry)": "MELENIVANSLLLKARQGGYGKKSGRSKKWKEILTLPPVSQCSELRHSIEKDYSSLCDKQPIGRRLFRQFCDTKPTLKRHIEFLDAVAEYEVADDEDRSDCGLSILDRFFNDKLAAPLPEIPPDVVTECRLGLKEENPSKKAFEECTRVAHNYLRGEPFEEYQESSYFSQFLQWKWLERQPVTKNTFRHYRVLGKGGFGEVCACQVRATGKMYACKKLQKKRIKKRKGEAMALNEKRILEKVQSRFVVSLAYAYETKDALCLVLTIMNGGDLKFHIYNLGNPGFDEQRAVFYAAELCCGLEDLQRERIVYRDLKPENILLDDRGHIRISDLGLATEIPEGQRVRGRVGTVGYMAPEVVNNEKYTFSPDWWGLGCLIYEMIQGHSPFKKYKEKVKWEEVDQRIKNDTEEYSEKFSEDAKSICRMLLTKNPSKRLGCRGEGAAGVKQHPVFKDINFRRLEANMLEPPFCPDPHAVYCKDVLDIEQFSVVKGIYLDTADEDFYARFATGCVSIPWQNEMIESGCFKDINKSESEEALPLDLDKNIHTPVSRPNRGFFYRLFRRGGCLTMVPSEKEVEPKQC", "experiment": "KINOMEscan: GRK4", "details": "1000 nM, read-out: Percent Control"}, "HCK": {"biological_target": "HCK (Homo sapiens, UniProt P08631)", "experiment": "KINOMEscan: HCK", "details": "1000 nM, read-out: Percent Control"}, "IKK-beta": {"biological_target": "IKK-beta (Homo sapiens, UniProt O14920)", "experiment": "KINOMEscan: IKK-beta", "details": "1000 nM, read-out: Percent Control"}, "[1]": {"biological_target": "JAK2(JH1domain-catalytic) (Homo sapiens, UniProt O60674)", "sequence (O60674 849-1132 limits assumed)": "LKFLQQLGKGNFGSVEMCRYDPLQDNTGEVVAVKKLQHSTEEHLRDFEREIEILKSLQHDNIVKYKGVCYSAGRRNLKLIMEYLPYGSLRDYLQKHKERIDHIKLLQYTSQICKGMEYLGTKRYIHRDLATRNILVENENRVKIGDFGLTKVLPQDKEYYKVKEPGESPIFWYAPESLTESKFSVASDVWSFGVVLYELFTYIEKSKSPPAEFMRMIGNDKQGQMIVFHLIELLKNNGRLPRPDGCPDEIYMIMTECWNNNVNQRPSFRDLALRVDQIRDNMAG", "experiment": "KINOMEscan: JAK2(JH1domain-catalytic)", "details": "1000 nM, read-out: Percent Control"}, "KIT(L576P)": {"biological_target": "KIT(L576P) (Homo sapiens, UniProt P10721, L576P)", "experiment": "KINOMEscan: KIT(L576P)", "details": "1000 nM, read-out: Percent Control"}, "MEK4": {"biological_target": "MEK4 (Homo sapiens, UniProt P45985)", "experiment": "KINOMEscan: MEK4", "details": "1000 nM, read-out: Percent Control"}}}
{"smiles": "COc1cc(F)ccc1-c1cc(Nc2cc(CS(C)(=N)=O)ccn2)ncc1F", "note": "(stereo not drawn) [VIP152]", "values": [{"measurement": "inhibition at 0.1 µM", "setting": "CDK7; 100 nM", "value": 64, "unit": "%"}, {"measurement": "inhibition at 1 µM", "setting": "CDK7; 1000 nM", "value": 97.9, "unit": "%"}, {"measurement": "remaining binding at 0.1 µM", "setting": "CDK7; CDK7, 100 nM, read-out: Percent Control", "value": 36, "unit": "%"}, {"measurement": "remaining binding at 1 µM", "setting": "CDK7; CDK7, 1000 nM, read-out: Percent Control", "value": 2.1, "unit": "%"}, {"measurement": "inhibition at 0.1 µM", "setting": "GSK3α; 100 nM, read-out: inhibition of GSK3α relative to control", "value": 97.1, "unit": "%"}, {"measurement": "remaining binding at 0.1 µM", "setting": "GSK3α; GSK3A, 100 nM, read-out: Percent Control", "value": 2.9, "unit": "%"}, {"measurement": "remaining binding at 1 µM", "setting": "GSK3α; GSK3A, 1000 nM, read-out: Percent Control", "value": 4.5, "unit": "%"}, {"measurement": "inhibition at 0.1 µM", "setting": "ERBB2; 100 nM, read-out: inhibition of ERBB2 relative to control", "value": 65, "unit": "%"}, {"measurement": "remaining binding at 0.1 µM", "setting": "ERBB2; ERBB2, 100 nM, read-out: Percent Control", "value": 35, "unit": "%"}, {"measurement": "remaining binding at 1 µM", "setting": "ERBB2; ERBB2, 1000 nM, read-out: Percent Control", "value": 100, "unit": "%"}, {"measurement": "inhibition at 10 µM", "setting": "Bradykinin B1", "value": 1, "unit": "%"}, {"measurement": "inhibition at 10 µM", "setting": "Transporter, GABA", "value": -20, "unit": "%"}, {"measurement": "remaining binding at 0.1 µM", "setting": "RIOK3", "value": 100, "unit": "%"}, {"measurement": "remaining binding at 0.1 µM", "setting": "TRKB", "value": 100, "unit": "%"}, {"measurement": "remaining binding at 0.1 µM", "setting": "TRKC", "value": 83, "unit": "%"}, {"measurement": "remaining binding at 1 µM", "setting": "ANKK1", "value": 83, "unit": "%"}, {"measurement": "remaining binding at 1 µM", "setting": "CAMK1G", "value": 89, "unit": "%"}, {"measurement": "remaining binding at 1 µM", "setting": "CHEK1", "value": 100, "unit": "%"}, {"measurement": "remaining binding at 1 µM", "setting": "EPHA4", "value": 94, "unit": "%"}, {"measurement": "remaining binding at 1 µM", "setting": "EPHB6", "value": 13, "unit": "%"}, {"measurement": "remaining binding at 1 µM", "setting": "ERBB4", "value": 88, "unit": "%"}, {"measurement": "remaining binding at 1 µM", "setting": "GRK4", "value": 26, "unit": "%"}, {"measurement": "remaining binding at 1 µM", "setting": "HCK", "value": 82, "unit": "%"}, {"measurement": "remaining binding at 1 µM", "setting": "IKK-beta", "value": 100, "unit": "%"}, {"measurement": "remaining binding at 1 µM", "setting": "[1]", "value": 66, "unit": "%"}, {"measurement": "remaining binding at 1 µM", "setting": "KIT(L576P)", "value": 72, "unit": "%"}, {"measurement": "remaining binding at 1 µM", "setting": "MEK4", "value": 89, "unit": "%"}]}
